Type in all cases: cell-based
What all share (settings): 1.5 μM each, 3 days

One experiment has as its system ADAMTS-5. Nature of the experiment: ADAMTS-5 mRNA expression relative to GAPDH, bovine primary chondrocytes in alginate beads (real-time PCR).
In another experiment the test system is COX-2. Nature of the experiment: COX-2 mRNA expression relative to GAPDH, bovine primary chondrocytes in alginate beads (real-time PCR).
A further experiment has as its system MMP-13. Nature of the experiment: MMP-13 mRNA expression relative to GAPDH, bovine primary chondrocytes in alginate beads (real-time PCR). On the technique in general: Quantitative PCR measures a nucleic acid by following its amplification.
[1] abbreviates: disease conditions (IL1a 10 ng/ml), vs IL1a.
Setting [2] is: normal conditions (absence of IL1a), vs CTL-.

Method for ADAMTS-5: (§1) The skin was removed from the foot. The articulation was opened transversally. Intra articular ligaments were transected. The opened articulation was washed with phosphate buffered saline. With a scalpel blade, full thickness slices of cartilage were dissected out and collected in DMEM high glucose with 10 mM hepes and 1% Penicillin-Streptomycin. Slices of cartilage were washed in DMEM high glucose with 10 mM hepes and 1% Penicillin-Streptomycin.
(§2) Cartilage was then digested successively by 0.5 mg/ml of hyluronidase during 30 minutes, 1.0 mg/ml of pronase E during 60 minutes and 1.0 mg/ml of collagenase overnight under slow agitation.
(§3) After the enzymatic incubation, the cell suspension was filtered through a 70 μm cell strainer to separate cell cluster and remove tissue debris. The cell suspension was centrifuged to pellet the cells. […]
(§4) Total RNA was isolated from pool of 40 beads and isolated using RNeasy kit from Qiagen. cDNA was obtained by reverse transcription of RNA with the Primescript 1st strand cDNA Synthesis kit from Takara. mRNA expression of ADAMTS-5, COX-2, MMP-13 and GAPDH were quantified in real-time PCR (SYBR Green)
(§5) Data were expressed as fold change in gene expression compared to negative control (cells cultured in complete medium).
(§6) Data were expressed as median±S.E.Median (2 experiments of 3 replicates each). […]
Method for COX-2: as §1, §2, §3, §4, §5, §6
Method for MMP-13: as §1, §2, §3, §4, §5, §6

On to `O=c1c(O)c(-c2ccc(O)c(O)c2)oc2cc(O)cc(O)c12` [Quercetin, quercetin], for which the “ADAMTS-5 mRNA expression relative to GAPDH” value in the experiment with ADAMTS-5 (setting [1]) and with ADAMTS-5 (setting [2]) was “decrease expression of ADAMTS-5” each time. The figures for the “COX-2 mRNA expression relative to GAPDH” value in the experiment with COX-2 (setting [1]) and in the experiment on COX-2 (setting [2]) were “decrease expression of COX-2” and “reduce expression of COX-2”, respectively. Further, the “MMP-13 mRNA expression relative to GAPDH” value in the experiment on MMP-13 (setting [1]) and in the experiment with MMP-13 (setting [2]) was “decrease expression of MMP-13” throughout.

(Values after patent US20250325576A1, “COMPOSITIONS FOR USE IN CARTILAGE BREAKDOWN” (Société des Produits Nestlé S.A., priority 2013, published 2025).)
